The values that follow come from patent US9040527B2, “Pyrimidinediamine kinase inhibitors” (Rigel Pharmaceuticals, Inc., priority 2008, dated 2015).

Usually IC50 stands for the concentration at which inhibition is half-maximal. The term pIC50 denotes the negative decadic logarithm of the IC50, by convention in mol/L.

Experiment [1] deals with T1, PLK1 (Homo sapiens, UniProt P53350). Briefly: In vitro PLK1 ELISA assay (biochemical). Also on record: purchased Cell Signalling 7728. Conditions: for IC50: ELISA, CHK2-derived peptide substrate, read-out: PLK1 IC50 (μM) biochemical assay; for pIC50: read-out: IC50 in biochemical in vitro PLK1 ELISA assay (less than 10 μM). The essentials:
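Commercial PLK1 phosphorylates neutravidin-captured biotinylated CHK2 peptide for 45 min at room temperature in HEPES pH 7.2 with Mg2+/Mn2+/DTT, compounds at 10 μM to 0.005 μM. Phospho-CHK2(T68) antibody plus HRP secondary gives chemiluminescent read-out used for IC50.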
For orientation: ELISA stands for enzyme-linked immunosorbent assay.

Experiment [2] concerns the target T1, PLK1. Briefly: Cellular PLK1 assay in K562 cells overexpressing CDC25C. As to conditions: nocodazole arrested, cdc25c p-Ser198 readout. Also on record: endogenous in cells; host or cells: K562 (human chronic myelogenous leukemia) overexpressing CDC25C, nocodazole-arrested. Type of experiment: cell-based. The essentials: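 K562 cells overexpressing CDC25C were arrested with 333 nM nocodazole for 18 h at 37 °C, then exposed to compound at 8 points from 10 μM to 0.005 μM in duplicate for 120 min. After fixation and permeabilization, cells were stained for cdc25c pSer198 with a PE secondary and read by flow cytometry, 10,000 cells per well.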

SMILES strings stand for the structures. pIC50: −log10 of the molar value. A value given as a limit tells only on which side of the number the result lay.

T1 sequence (P53350 whole entry): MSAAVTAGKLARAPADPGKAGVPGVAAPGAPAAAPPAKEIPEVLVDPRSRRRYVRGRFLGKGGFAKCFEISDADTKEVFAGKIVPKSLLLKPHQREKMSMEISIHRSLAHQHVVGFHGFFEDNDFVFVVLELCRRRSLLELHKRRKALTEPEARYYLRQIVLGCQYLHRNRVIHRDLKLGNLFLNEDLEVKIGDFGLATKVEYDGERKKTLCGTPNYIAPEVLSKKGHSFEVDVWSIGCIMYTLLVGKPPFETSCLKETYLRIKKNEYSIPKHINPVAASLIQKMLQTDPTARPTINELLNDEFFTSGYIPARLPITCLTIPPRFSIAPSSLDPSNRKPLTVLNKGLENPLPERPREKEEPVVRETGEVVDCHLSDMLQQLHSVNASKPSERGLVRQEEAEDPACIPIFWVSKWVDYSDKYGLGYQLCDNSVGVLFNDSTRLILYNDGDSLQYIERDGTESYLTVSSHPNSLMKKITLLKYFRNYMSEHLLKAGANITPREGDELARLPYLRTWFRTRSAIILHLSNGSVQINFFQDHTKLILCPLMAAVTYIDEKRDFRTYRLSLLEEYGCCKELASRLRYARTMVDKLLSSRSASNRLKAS

Regarding `Cc1cc(Nc2ncc(C)c(Nc3ccc4c(n3)N(C)C(=O)CO4)n2)ccc1N1CCN(C)CC1` [compound 95, 4-methyl-6-(5-methyl-2-(3-methyl-4-(4-methylpiperazin-1-yl)phenylamino)pyrimidin-4-ylamino)-2H-pyrido[3,2-b][1,4]oxazin-3(4H)-one], in experiment [1], the IC50 was 0.5 to 5 µM and the pIC50 was above 5.00. For the same compound, the IC50 in experiment [2] was at least 10 µM.

As to `CN1C(=O)COc2ccc(Nc3nc(Nc4ccc(N5CCN(S(C)(=O)=O)CC5)cc4)ncc3Cl)cc21` [compound 197, 6-(5-chloro-2-(4-(4-(methylsulfonyl)piperazin-1-yl)phenyl-amino)pyrimidin-4-ylamino)-4-methyl-2H-benzo[b][1,4]oxazin-3(4H)-one], the IC50 in experiment [1] was at least 10 µM; in experiment [2], 0.5 to 5 µM.

Take `CCCN1C(=O)COc2ccc(Nc3nc(Nc4ccc(N5CCN(C)CC5)c(C(F)(F)F)c4)ncc3C)nc21` [compound 136, 6-(5-methyl-2-(4-(4-methylpiperazin-1-yl)-3-(trifluoromethyl)phenyl-amino)pyrimidin-4-ylamino)-4-propyl-2H-pyrido[3,2-b][1,4]oxazin-3(4H)-one]: the IC50 in experiment [1] and in experiment [2] was at least 10 µM in each case.

Take `CN1CCN(c2cccc(Nc3ncc(F)c(Nc4ccc5c(n4)NC(=O)CO5)n3)c2)CC1` [compound 157, 6-(5-fluoro-2-(3-(4-methylpiperazin-1-yl)phenylamino)pyrimidin-4-ylamino)-2H-pyrido[3,2-b][1,4]oxazin-3(4H)-one]: in experiment [1], the IC50 was below 0.5 µM and the pIC50 was above 5.00. Besides, in experiment [2], the IC50 was below 0.5 µM.

On to `CC(C)c1cc(Nc2ncc(F)c(Nc3ccc4c(n3)NC(=O)CO4)n2)cc(N2CCN(C)CC2)c1` [compound 44, 6-(5-fluoro-2-(3-isopropyl-5-(4-methylpiperazin-1-yl)phenylamino)pyrimidin-4-ylamino)-2H-pyrido[3,2-b][1,4]oxazin-3(4H)-one], for which, in experiment [1], the 50% inhibitory concentration (IC50) was below 0.5 µM and the pIC50 was above 5.00. Besides, the IC50 in experiment [2] is at least 10 µM.

With `Cc1cc(Nc2ncc(C)c(Nc3ccc4c(n3)N(Cc3ccccc3)C(=O)CO4)n2)ccc1N1CCN(C)CC1` [compound 121, 4-benzyl-6-(5-methyl-2-(3-methyl-4-(4-methylpiperazin-1-yl)phenylamino)pyrimidin-4-ylamino)-2H-pyrido[3,2-b][1,4]oxazin-3(4H)-one], the values for the IC50 in experiment [1] and in experiment [2] were at least 10 µM and 0.5 to 5 µM, respectively.

As for `CN1CCN(c2cccc(Nc3ncc(F)c(N(CC4CC4)c4ccc5c(n4)NCCO5)n3)c2)CC1` [compound 53, N4-(cyclopropylmethyl)-N4-(3,4-dihydro-2H-pyrido[3,2-b][1,4]oxazin-6-yl)-5-fluoro-N2-(3-(4-methylpiperazin-1-yl)phenyl)pyrimidine-2,4-diamine], in experiment [1], the IC50 is 0.5 to 5 µM and the pIC50 is above 5.00. The compound also displayed an IC50 in experiment [2] of at least 10 µM.

Turning to `Cc1cc(Nc2ncc(C)c(Nc3ccc4c(c3)N(Cc3ccccn3)C(=O)C(F)(F)O4)n2)ccc1N1CC2CC1CN2C` (centres unmarked) [compound 139, 2,2-difluoro-6-(5-methyl-2-(3-methyl-4-(5-methyl-2,5-diaza-bicyclo[2.2.1]heptan-2-yl)phenyl-amino)pyrimidin-4-ylamino)-4-(pyridin-2-ylmethyl)-2H-benzo[b][1,4]oxazin-3(4H)-one], the IC50 in experiment [1] was at least 10 µM; in experiment [2] it was 5 to 10 µM.

For `CCN1C(=O)COc2ccc(Nc3nc(Nc4ccc(N5CCN(C)CC5)cc4)ncc3Cl)cc21` [compound 173, 6-(5-chloro-2-(4-(4-methylpiperazin-1-yl)phenylamino)pyrimidin-4-ylamino)-4-ethyl-2H-benzo[b][1,4]oxazin-3(4H)-one], in experiment [1], the IC50 lay in the range of 0.5 to 5 µM and the pIC50 is above 5.00. In experiment [2], this compound came in with an IC50 of 0.5 to 5 µM.
